Data set [1] concerns Staphylococcus epidermidis DSM 3095. Briefly: Resistance and sensitivity of the producer strain (strain characterisation, adaptation to rising Epidermin concentrations). The class given is cell-based. As to conditions: for Sonstige Resistenzen: in Flüssigkultur, marked resistance. The source says:
Der zur Herstellung von Epidermin verwendete Stamm wird nach Schleifer & Kloos (Int. J. Syst. Bact. 25, 50-61 (1975)) wie folgt charakterisiert: Gramfärbung : positiv Zellgröße : Durchmesser 0,5-0,8 µm Koloniengröße : ca. 1 mm Durchmesser Aussehen der Kolonien : glatt, glänzend, in der Mitte leicht erhöht Kolonienfarbe : gräulich - weiß Zellen in Kultur : oft Einzelzellen oder Zweier-Pakete, selten größere Haufen Hämolyse : auf Blutplatten ausgestrichene Kulturen zeigten starke Hämolyse Anaerobes Wachstum : der Stamm wächst auch unter anaeroben Bedingungen Lysozymempfindlichkeit: : die Zellen sind bis 2 mg/ml resistent gegen Lysozym Lysostaphinempfindlichkeit : die Zellen sind schon bei 20 µg/ml sensitiv für Lysostaphin Epidermin-Resistenz : bis 1 mg/ml nachgewiesen Sonstige Resistenzen : in Flüssigkultur zeigt der Stamm eine ausgeprägte Resistenz gegenüber Streptomycin (bis 1 mg/ml) und Spectinomycin (0,5 mg/ml) Erhöhter NaCl-Gehalt : Der Stamm wächst noch gut bis 15% Gew.-% Natriumchlorid.
(§1) Der neue Klon DSM 3095 wurde wie folgt gewonnen: Die Adaption wurde in 100 ml Erlenmeyerkölbchen mit einem seitlichen Einstich und 10 ml Nährlösung (Brain Heart Infusion) durchgeführt. Die Startkultur wurde mit 0,5 ml einer 12 Stunden alten Kultur angeimpft. Für die Kölbchen, die steigende Epidermin-Konzentrationen enthielten, dienten 0,5 ml der jeweils vorangegangenen, gutgewachsenen Kultur als Impfmaterial. Die Beurteilung des Wachstums erfolgte photometrisch bei 578 nm. […] Als Vergleichswert wurde eine unverdünnte 12 Stunden alte Kultur des literaturbekannten Vergleichsstammes NCIB 11536 ausplattiert. Nach 24 Stunden Inkubation bei 37°C zeigten sich bei der auf 10⁻⁶ verdünnten adaptierten Kultur 94 Einzelkolonien. […] Die resistenten Kolonien wurden selektioniert und auf Platten Medium 2 im Raster ausgestrichen. Nach einem Vortest auf Produktion durch Ausstechen von Stückchen mit 5 mm Durchmesser und Aktivitätstest auf Micrococcus luteus ATCC 9341 wurden produzierende Klone im Flüssigmedium getestet.

Data set [2] deals with verschiedener Mikroorganismen. Briefly: Plate diffusion test, spectrum of activity. The conditions noted are these: for Empfindlichkeit verschiedener Mikroorganismen: Plattendiffusionstest, Tabelle 2. The class given is cell-based. From the text:
Während der Herstellung und Isolierung des Epidermins wurde zur biologischen Charakterisierung der Plattendiffusionstest angewandt; nämlich zur Aufnahme des Wirkungsspektrums sowie zur Kontrolle von Produktion, Aufarbeitung und Anreicherung. Der Test wurde, wie bei Zähner und Maas, Biology of antibiotics (Springer Verlag, Berlin-Heidelberg-New York, 1972) beschrieben, in Petrischalen der Firma Greiner, Nürtingen mit Filterrondellen von 6 mm Durchmesser (Macherey & Nagel, Düren) durchgeführt. Die Filterrondellen wurden mit 20 µl der betreffenden Testflüssigkeit benetzt, bei Raumtemperatur auf einer Glasplatte getrocknet und auf die Testplatten aufgelegt. Die Testplatten wurden bei 37°C inkubiert und nach ca. 16 Stunden die Wachstumshemmung ausgewertet. Als Routinetestkeim diente Streptococcus pyogenes ATCC 8668 und, aufgrund seiner problemloseren Handhabung, Micrococcus luteus ATCC 9341. Testplatten mit Streptococcus pyogenes ATCC 8668: Der Testkeim mußte vor Herstellung der Testplatten auf Blutplatten mit Mucin [Medium: 500 ml Agar pH 7,4, 160 ml Mucinlösung (10 Gewichtsprozent), 3,5 ml Glucoselösung (50 Gewichtsprozent), 70 ml Hammelblut] frisch überimpft werden. Nach 15-18 Stunden Inkubation bei 37°C wurde eine Salinesuspension (E₅₇₈ 0,5) hergestellt und 1 ml dieser Suspension zu 100 ml Nährboden (Medium: Pepton 10 g, Fleischextrakt 8 g, Kochsalz 3 g, Na₂HPO₄ 2 g, Glucose 10 g auf 1 l, pH 7,2) pipettiert. Die zu 10 ml Portionen gegossenen Platten waren einige Tage bei 4°C haltbar. Testplatten mit Micrococcus luteus ATCC 9341: Eine Übernachtkultur (Medium: Pepton 10 g, Fleischextrakt 8 g, Kochsalz 3 g, Na₂HPO₄ 2 g, Glucose 10 g auf 1 l, pH 7,2) wurde auf eine Extinktion von 1,0 bei 578 nm verdünnt. Mit 0,25 ml dieser Suspension wurden 100 ml Agar angeimpft und Platten zu 10 ml gegossen. Die Testplatten konnten mehrere Tage bei 4°C aufbewahrt werden. […]

In data set [3] the test system is Staphylococcus epidermidis NCIB 11536. Briefly: Biophotometer test, Epidermin added in different growth phases. The class given is cell-based. On the procedure:
(§2) Die Versuche zur Eigenhemmung des Produzentenstammes durch das Antibiotikum und die Untersuchung auf Resistenz der selektionierten Klone wurden im Biophotometer (Eppendorf-Photometer mit Umlaufautomat) durchgeführt.
(§3) Diese Versuche können z.B. im einzelnen wie folgt durchgeführt werden: Jeweils 0,5 ml einer 12 Stunden Kultur von Staphylococcus epidermidis NCIB 11536 bzw. des selektionierten resistenten Stammes DMS 3095 wurden auf frisches Medium überimpft.
(§4) Diese Kulturen ließ man bis zu einer Extinktion von 0,043 bei 578 nm hochwachsen (Küvetten mit einer Schichtdicke von 1 cm) und verteilte sie dann in Portionen zu 7,5 ml in die Küvetten des Biophotometers (Schichtdicke 2 cm).
(§5) Die Dichte der Zellsuspension wurde im Biophotometer auf eine Transmission von 90% eingestellt. Die Inkubation erfolgte bei 37°C und maximaler Belüftung. Epidermin wurde als wässrige Lösung in unterschiedlichen Wachstumsphasen zugegeben.
(§6) Bei beiden Stämmen wurden zu Beginn und in der Mitte der logarithmischen Phase unterschiedliche Epidermin-Konzentrationen zugegeben. Die Ergebnisse sind in Abbildung 13 und 14 dargestellt.

The subject of data set [4] is resistenter Klon DSM 3095. The data set is described as above. The class given is cell-based, Staphylococcus epidermidis. On the procedure: as §2, §3, §4, §5, §6
Data set [5] deals with Propionibakteriumacnes-Stämme. Briefly: Plate diffusion test and minimal inhibitory concentration (Tables 2 and 3). The class given is cell-based, Propionibacterium acnes. The conditions noted are these: summary of Tabellen 2 und 3. The source says:
Während der Herstellung und Isolierung des Epidermins wurde zur biologischen Charakterisierung der Plattendiffusionstest angewandt; nämlich zur Aufnahme des Wirkungsspektrums sowie zur Kontrolle von Produktion, Aufarbeitung und Anreicherung. Der Test wurde, wie bei Zähner und Maas, Biology of antibiotics (Springer Verlag, Berlin-Heidelberg-New York, 1972) beschrieben, in Petrischalen der Firma Greiner, Nürtingen mit Filterrondellen von 6 mm Durchmesser (Macherey & Nagel, Düren) durchgeführt. Die Filterrondellen wurden mit 20 µl der betreffenden Testflüssigkeit benetzt, bei Raumtemperatur auf einer Glasplatte getrocknet und auf die Testplatten aufgelegt. Die Testplatten wurden bei 37°C inkubiert und nach ca. 16 Stunden die Wachstumshemmung ausgewertet. Als Routinetestkeim diente Streptococcus pyogenes ATCC 8668 und, aufgrund seiner problemloseren Handhabung, Micrococcus luteus ATCC 9341. Testplatten mit Streptococcus pyogenes ATCC 8668: Der Testkeim mußte vor Herstellung der Testplatten auf Blutplatten mit Mucin [Medium: 500 ml Agar pH 7,4, 160 ml Mucinlösung (10 Gewichtsprozent), 3,5 ml Glucoselösung (50 Gewichtsprozent), 70 ml Hammelblut] frisch überimpft werden. […]

The conditions of data set [6]: in vivo.
The nature of data set [7]: pH stability, retention of antibiotic activity in aqueous solutions of different pH. It is filed as physicochemical. From the text:
(§7) Die neue Verbindung Epidermin kann durch folgende Angaben charakterisert werden: • 1. Natur: farbloses Pulver • 2. […] Methanol/Eisessig, löslich in niederen Alkoholen, unlöslich in Chloroform, Aceton, Diethylether, Petrolether. • 3. Farbreaktion auf Kieselgelplatten: Ninhydrin, Chlor/TDM (TDM=4,4'-Bis-(dimethylamino)diphenylmethan), Orcin/Schwefelsäure, Anisaldehyd/Schwefelsäure. Zerstörungsfreier Nachweis im UV-Licht bei 254 nm und durch Sprühen mit Wasser. • 4. Dünnschichtchromatographie: Es wurden Kieselgelfertigplatten 60 F₂₅₄ (Merck) verwendet. System A: Chloroform/Methanol/17% Ammoniak (2/2/1), RF = 0,73 System B: Chloroform/Methanol/17% Ammoniak (70/35/10) RF = 0,30 System C: n-Butanol/Eisessig/Wasser (4/1/1) RF = 0,05 • 5. HPLC : siehe Abb. 7. • 6. […] Molmasse: im Bereich von 2160. Je nach Isolierungsmethoden können als Anionen, z.B. Chlorid, Acetat oder Phosphat, enthalten sein. • 8. Ultraviolettabsorptionsspektrum: In wässriger Lösung langwelliges Maximum bei 267 nm (Abb. 3). • 9. Infrarotabsorptionsspektrum: IR-Spektrum einer Probe in einer Kaliumbromidtablette (Abb. 4). • 10. Kernmagnetische Resonanzspektren ¹H-NMR Spektrum: Abb. 5, ¹³C-NMR-Spektrum: Abb. 6
Stabilitätstests und chromatographische Untersuchungen wurden am lyophylisierten Butanolextrakt durchgeführt. Die Inkubation des Extraktes mit wässrigen Lösungen verschiedener pH-Werte ergab ab pH 10 eine starke Abnahme der Aktivität, im Bereich von pH 2-7 ist das Antibiotikum jedoch stabil.

In data set [8] the test system is Zellen. Briefly: Mode of action (bactericidal, lysis of cells). The class given is cell-based. As to conditions: leads to lysis of the cells; same as the culture broth.
Data set [9] can be described thus: Solubility (characterisation data). It is filed as physicochemical.
Excerpt: as §7

The test system of data set [10] is Vergleichsstamm NCIB 11536. Put plainly: Growth of the comparison strain on plates containing Epidermin. As to conditions: undiluted 12 h culture on plates with 0,15 mg/ml Epidermin, 48 Stunden. The class given is cell-based, Staphylococcus epidermidis. On the procedure:
as §1

Ends that are not written are not given here.

Turning to `CN[C@@H]1[C@H](O)[C@H](NC)[C@H]2O[C@@]3(O)C(=O)C[C@@H](C)O[C@H]3O[C@@H]2[C@H]1O` [Spectinomycin], the “Sonstige Resistenzen” value in data set [1] is given as 0,5 mg/ml.
Consider `[H]/N=C(/N)N[C@H]1[C@H](O)[C@@H](O)[C@H](O[C@@H]2O[C@@H](C)[C@](O)(C=O)[C@H]2O[C@@H]2O[C@@H](CO)[C@H](O)[C@@H](O)[C@@H]2NC)[C@@H](N/C(N)=N\[H])[C@@H]1O` [Streptomycin], for which the “Sonstige Resistenzen” value in data set [1] is not above 1 mg/mL.
With “Epidermin: ribosomal synthetisiertes, heterodet tetracyclisches Dokosapeptidantibiotikum aus Staphylococcus epidermidis DSM 3095 (IASKFICTPGCAKTGSFNSYCC; also: heterodetic tetracyclic lantibiotic, rings and modified residues not placed; UniProt P08136 31-52, looked up)”, in [2], the “Empfindlichkeit verschiedener Mikroorganismen” value is “fast ausschließlich auf grampositive Bakterien wirken”. Besides, the “antibakterielle Wirksamkeit” value in [2] (especially good against a whole series of gram-positive bacteria) was “sehr gute antibakterielle Wirksamkeit”. The Wachstumsverlauf result is “Lyse” in data set [3] (Abb. 13 Kurve 2: 10 µg/ml zu Beginn der logarithmischen Phase); “Lyse” in [3] (Abb. 13 Kurve 3: 10 µg/ml in der Mitte der logarithmischen Phase); “Wachstumsverzögerung” in data set [3] (Abb. 13 Kurve 4: 2,5 µg/ml in der Mitte der logarithmischen Phase); “geringfügige Wachstumsverzögerung” in [4] (Abb. 14 Kurve 2: 120 µg/ml zu Beginn der logarithmischen Phase); “Wachstumsverzögerung” in [4] (Abb. 14 Kurve 3: 360 µg/ml in der Mitte der logarithmischen Phase). Also, the Lyse result in data set [4] (all concentrations tested so far) is on record as “keine Lyse”. Also, the Wirksamkeit result in [5] was “sehr gute Wirksamkeit”. Moreover, the Verträglichkeit result in data set [6] is given as “sehr gut verträglich”. Moreover, the “toxische Wirkungen” value in data set [6] is on record as “keine toxischen Wirkungen”. The Stabilität result in data set [7] (bei höheren pH-Werten (above pH 7)) is given as “starker Aktivitätsabfall”; in [7] (pH=2 bis pH=7), “Stabil”; in data set [7] (tested on lyophilised butanol extract, pH 2-7), “stabil”. Further, the Wirkung result in [8] is listed as “bakterizide Wirkung”. In addition, the Löslichkeit result in data set [9] (in Chloroform, Aceton, Diethylether, Petrolether) is given as “unlöslich”; in [9] (in Mischungen aus Wasser/Eisessig bzw. Methanol/Eisessig), “Sehr gut löslich”; in data set [9] (in niederen Alkoholen), “löslich”. Besides, the Einzelkolonien in data set [1] (adapted culture diluted to 10⁻⁶, plate with 0,5 mg/ml Epidermin, 24 Stunden 37°C) is 94. The Wachstum result in data set [1] (adapted culture, 1,0 mg/ml Epidermin in Flüssigkultur) is given as “noch gut gewachsen”; in data set [10], “wuchs auch nach 48 Stunden Inkubation nicht”. Moreover, the Resistenz entry in data set [1] (against the Epidermin it produces itself) is on record as “resistent”. In data set [1] (resistance shown up to this concentration), this compound yielded an Epidermin-Resistenz not above 1 mg/mL.
As to “Nisin (ITSISLCTPGCKTGALMGCNMKTATCHCSIHVSK; also: lantibiotic: thioether rings and dehydro residues, not placed; UniProt P13068 24-57, looked up) [Vergleichsantibiotikum (vgl. DE-A-2 000 818 bzw. GB-B-1 182 156), Aktivität von 40000 units, reference compound]”, in data set [2] (Nisin mit einer Aktivität von 40000 units), the “Empfindlichkeit verschiedener Mikroorganismen” value was “fast ausschließlich auf grampositive Bakterien wirken”.

The values above are taken from patent EP0181578B1, “Antibiotic polypeptide, process for its preparation and its use” (Dr. Karl Thomae GmbH, priority 1984, dated 1991).
